Experimental data reported in paper PMC11927696, “Synthetic mycolates derivatives to decipher protein mycoloylation, a unique post-translational modification in bacteria” (The Journal of Biological Chemistry, 2025).

Legend:
MytC (MytChis) [1] = target: T1, MytC (MytChis) (Corynebacterium glutamicum, UniProt Q8NTG4); assay: X-ray crystallography, […] Å; assay type: binding
T1 construct: gene Cgl0343; residues 30-363 seen in crystal

MytC (MytChis) [2] = target: T1, MytC (MytChis); assay: PorA mycoloylation, MALDI-TOF MS; assay type: biochemical; conditions: PorA acceptor; in combination with TDM/TMM mix, pH 8.0, 37 °C, 3 h
MytA (MytAhis) [3] = target: T2, MytA (MytAhis) (Corynebacterium glutamicum, UniProt P0C1D6); assay: trehalose acylation (trehalose dipalmitate formation), MALDI-TOF MS; assay type: biochemical; conditions: 1 mM, acts as donor and acceptor, 5 μM MytA, pH 8.0, 37 °C, 3 h
T2 construct: gene csp1
T2 sequence (P0C1D6 44-657): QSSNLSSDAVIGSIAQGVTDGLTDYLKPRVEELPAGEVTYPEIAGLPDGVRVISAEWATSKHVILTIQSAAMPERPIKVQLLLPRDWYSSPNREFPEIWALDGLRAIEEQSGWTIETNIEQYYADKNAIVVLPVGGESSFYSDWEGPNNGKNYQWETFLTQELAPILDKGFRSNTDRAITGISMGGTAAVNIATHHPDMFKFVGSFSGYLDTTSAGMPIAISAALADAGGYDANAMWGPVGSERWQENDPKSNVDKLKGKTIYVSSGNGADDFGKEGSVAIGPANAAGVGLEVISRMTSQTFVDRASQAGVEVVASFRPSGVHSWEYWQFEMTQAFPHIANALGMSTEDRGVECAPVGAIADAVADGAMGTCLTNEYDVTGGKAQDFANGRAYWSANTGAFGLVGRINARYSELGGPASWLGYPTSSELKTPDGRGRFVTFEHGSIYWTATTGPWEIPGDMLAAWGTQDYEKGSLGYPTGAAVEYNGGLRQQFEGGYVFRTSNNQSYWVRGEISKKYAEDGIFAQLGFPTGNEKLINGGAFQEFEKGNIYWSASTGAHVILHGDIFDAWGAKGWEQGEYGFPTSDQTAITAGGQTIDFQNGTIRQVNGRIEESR

MytA (MytAhis) [4] = target: T2, MytA (MytAhis); assay: trehalose mycoloylation (TDM formation), TLC and MALDI-TOF MS; assay type: biochemical; conditions: 1 mM, acts as donor and acceptor, 5 μM MytA, pH 8.0, 37 °C, 3 h

T1 sequence (Q8NTG4 entry or part of it): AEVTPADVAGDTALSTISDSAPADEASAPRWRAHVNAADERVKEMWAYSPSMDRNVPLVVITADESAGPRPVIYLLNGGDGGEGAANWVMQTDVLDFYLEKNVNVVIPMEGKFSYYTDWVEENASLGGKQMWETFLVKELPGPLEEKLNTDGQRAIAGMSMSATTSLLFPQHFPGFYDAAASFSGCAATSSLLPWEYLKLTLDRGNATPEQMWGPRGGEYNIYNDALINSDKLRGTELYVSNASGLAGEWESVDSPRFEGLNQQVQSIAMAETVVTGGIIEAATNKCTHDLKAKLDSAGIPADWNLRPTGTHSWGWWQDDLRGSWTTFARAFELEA

Q: Which “X-ray crystallography, 2.69 Å” value (MytC (MytChis) [1]; covalent, mycoloyl ester on catalytic S189, co-crystallised, pH 7.1) does the source give for `CCCCC[C@@H](O)[C@@H](CCCCC)C(=O)OC[C@H]1O[C@H](O[C@H]2O[C@H](CO)[C@@H](O)[C@H](O)[C@H]2O)[C@H](O)[C@@H](O)[C@@H]1O` [compound 2, TMM-C13:0] here?
A: S189 Oγ atom forms an ester bond with the carbonyl of the analog

Q: For `CCCCCCCCCCCCCCC[C@@H](O)CC(=O)OC[C@H]1O[C@H](O[C@H]2O[C@H](CO)[C@@H](O)[C@H](O)[C@H]2O)[C@H](O)[C@@H](O)[C@@H]1O` [compound 4, analog 4], which “PorA mycoloylation, MALDI-TOF MS” value (MytC (MytChis) [2]) is on record?
A: is perfectly used as a substrate to acylate PorA

Q: With `CCCCCCCCCCCCCCCC(=O)OC[C@H]1O[C@H](O[C@H]2O[C@H](CO)[C@@H](O)[C@H](O)[C@H]2O)[C@H](O)[C@@H](O)[C@@H]1O` [compound 6, TMP] as the compound, how does the “trehalose acylation (trehalose dipalmitate formation), MALDI-TOF MS” value (MytA (MytAhis) [3]) read?
A: both compounds are efficient substrates of MytA

Q: With `CCCCCCCCCCCCCCC[C@@H](O)[C@@H](CCCCCCCCCCCCCC)C(=O)OC[C@H]1O[C@H](O[C@H]2O[C@H](CO)[C@@H](O)[C@H](O)[C@H]2O)[C@H](O)[C@@H](O)[C@@H]1O` [synthetic TMM-C32:0] as the compound, how does the “trehalose mycoloylation (TDM formation), TLC and MALDI-TOF MS” value (MytA (MytAhis) [4]) read?
A: a small amount of TDM is detected on TLC

Q: Which “X-ray crystallography, 2.69 Å” value (MytC (MytChis) [1]; second site, protein surface near active site groove, contacts E225 and D232 of helix α8, crystal with TMM-C13:0) does the source give for `OC[C@H]1O[C@H](O[C@H]2O[C@H](CO)[C@@H](O)[C@H](O)[C@H]2O)[C@H](O)[C@@H](O)[C@@H]1O` [trehalose] here?
A: A trehalose moiety was identified on the surface of MytC
